Publication PMC9241695, “Selective Metal Chelation by a Thiosemicarbazone Derivative Interferes with Mitochondrial Respiration and Ribosome Biogenesis in Candida albicans” (Microbiology Spectrum, 2022)
≈ marks a conversion by molar mass, not a printed value.

What was measured:
[1] = tested on: A. fumigatus AF293; test: Antifungal susceptibility testing, microbroth dilution MIC; assay type: cell-based; details: Aspergillus fumigatus, AF293; standard strain of A. fumigatus; 48 h; read-out: MIC (μg/mL) against fungi AF293
Text: (§1) Compound library. The thiosemicarbazone derivatives Triapine and COTI-2 were purchased from Med Chem Express (MCE). The other 87 thiosemicarbazones used in this study were previously synthesized by our collaborators (1, 2). Their structures are shown in Table 1 and Table S1 to help the reader clearly understand the relationship between structure and activity.
(§2) Strains and culture conditions. Clinically derived C. albicans isolates, including G5, F5, and Gu5, were kindly provided by Professor Joachim Morschhäuser of the University of Würzburg. Other clinical C. albicans isolates were kindly donated by Professor Qingguo Qi of Shandong University and Qianfoshan Hospital of Shandong Province Other Candida strains were obtained from Jinan Central Hospital.
(§3) The zap1 mutant and its complemented strain were kindly provided by Professor Aaron P. Mitchell of Carnegie Mellon University (3). The C. neoformans strains used in this study was kindly donated by Professor Guojian Liao of Southwest University and A. fumigatus strain used in this study was provided by Professor Ling Lu of Nanjing Normal University. […]
(§4) Antifungal susceptibility testing. To determine in vitro antifungal activities, the microbroth dilution method was carried out in RPMI1640 medium according to the guidelines of the Clinical and Laboratory Standards Institute (4, 5). The initial concentration in RPMI1640 medium was 1 × 10^3 CFU/mL for the C. albicans and C. neoformans suspensions but 1 × 10^4 CFU/mL for A. fumigatus. The range of final drug concentrations was 0.0156–64 μg/mL. The plates were incubated at35°C for 24 […]
(§5) h (for C. albicans, C. krusei, C. tropicalis, C. parapsilosis) or 48 h (for C. neoformans, A. fumigatus). The MIC was determined based on visible growth inhibition compared with the control. All experiments were performed in duplicate. […]

[2] = tested on: C. neoformans H99; test: as above; assay type: cell-based; details: Cryptococcus neoformans, H99; C. neoformans wild-type strain; 48 h; read-out: MIC (μg/mL) against fungi H99
Text: as §1, §2, §3, §4, §5

[3] = tested on: A. fumigatus 1161; test: Microbroth dilution MIC80; assay type: cell-based; details: Aspergillus fumigatus, 1161
Text: as §1, §2
as §3, with “University. Before in vitro and in vivo experiments, all C. albicans strains were grown on YPD agar plates. After culturing at 30°C for 24 h, colonies of each strain were cultured in liquid YPD medium at 30°C with continuous shaking” for “University.”
as §4, §5

[4] = tested on: C. albicans 11f; test: Microbroth dilution MIC80; assay type: cell-based; details: Candida albicans, 11F
Text: as §1, §2
as §3, with “University. Before in vitro and in vivo experiments, all C. albicans strains were grown on YPD agar plates. After culturing at 30°C for 24 h, colonies of each strain were cultured in liquid YPD medium at 30°C with continuous shaking” for “University.”
as §4, §5

[5] = tested on: C. albicans 24g; test: Microbroth dilution MIC80; assay type: cell-based; details: Candida albicans, 24G
Text: as §1, §2
as §3, with “University. Before in vitro and in vivo experiments, all C. albicans strains were grown on YPD agar plates. After culturing at 30°C for 24 h, colonies of each strain were cultured in liquid YPD medium at 30°C with continuous shaking” for “University.”
as §4, §5

[6] = tested on: C. albicans CA1; test: Microbroth dilution MIC80; assay type: cell-based; details: Candida albicans, CA1
Text: as §1, §2
as §3, with “University. Before in vitro and in vivo experiments, all C. albicans strains were grown on YPD agar plates. After culturing at 30°C for 24 h, colonies of each strain were cultured in liquid YPD medium at 30°C with continuous shaking” for “University.”
as §4, §5

[7] = tested on: C. neoformans 108; test: Microbroth dilution MIC80; assay type: cell-based; details: Cryptococcus neoformans, 108
Text: as §1, §2
as §3, with “University. Before in vitro and in vivo experiments, all C. albicans strains were grown on YPD agar plates. After culturing at 30°C for 24 h, colonies of each strain were cultured in liquid YPD medium at 30°C with continuous shaking” for “University.”
as §4, §5

[8] = Cytotoxicity testing (MTT); assay type: cell-based, human; details: human, 48 h, MTT
Description: (§6) h (for C. albicans, C. krusei, C. tropicalis, C. parapsilosis) or 48 h (for C. neoformans, A. fumigatus). The MIC was determined based on visible growth inhibition compared with the control. All experiments were performed in duplicate.
(§7) Cytotoxicity testing. The cell lines HK2 and 16HBE were used to evaluate the cytotoxicity of 19ak, 19k and 19t. Cells in DMEM containing 10% fetal bovine serum (Gibco) were seeded in 96-well tissue culture plates at a cell density of 1 × 10^4 cells/mL and incubated for 24 h to allow adhesion. The supernatant was then replaced with fresh DMEM containing various concentrations of 19ak, 19k and 19t. The plates were subsequently incubated for an additional 48 h at 37°C with 5% CO2, followed by the addition of 10 μL of MTT solution to each well and incubation at 37°C for 4 h.
(§8) The effects of the compounds on cell proliferation were detected by measuring the absorbance at 570 nm in a microplate reader (BioTek, VT, USA). Three independent experiments were conducted. […]

[9] = tested on: human bronchial epithelial cell line 16HBE; test: Cytotoxicity testing (MTT); assay type: cell-based; details: ratio of IC50 against 16HBE to MIC80 against C. albicans SC5314
Description: as §6, §7, §8

[10] = tested on: human renal epithelial cell line HK2; test: Cytotoxicity testing (MTT); assay type: cell-based; details: ratio of IC50 against HK2 to MIC80 against C. albicans SC5314
Description: as §6, §7, §8

[11] = tested on: C. albicans SC5314; test: Time-growth curve with antioxidants; assay type: cell-based, Candida albicans; details: SC medium, 5 mM NAC or 5 mM Tu, 0.25 or 0.5 μg/mL 19ak, 15 h
Description: albicans SC5314 cells (1 × 10^6 cells/mL) were challenged with various doses of 19ak and incubated at 30°C for 6 h, followed by staining with 20 μM Rh123 for 30 min in the dark and detection by flow cytometry (Becton Dickinson, CA, USA).
Measurement of intracellular ATP production. To explore whether 19ak affects intracellular ATP content by damaging mitochondria, we treated C. albicans SC5314 cells (1 × 10^6 cells/mL) with different doses of 19ak. After lysing the cells in lysis buffer, ATP levels were measured with the ATP Assay Kit (Beyotime, Haimen, China) according to the manufacturer's instructions. Cellular protein concentrations were determined using a BCA Protein Assay Kit (Beyotime, Haimen, China). The intracellular ATP content was calculated by referring to a standard curve and normalized using the protein content of each sample for expression as nmol/mg […]
ROS production assay. […] The fluorescence intensity was then measured by flow cytometry, and the data were analyzed with Win MDI 2.9 software.
Influence of oxidant or antioxidant molecules on 19ak activity. […] The effects of NAC, Tu and DTT on the growth of 19ak treated fungal cells were measured using a time-growth curve. […] A microplate reader was used to measure the absorbance at600 nm, and the growth curves were plotted.

Structure (SMILES): C/C(=N\NC(=S)N(C)C)c1ccccn1 [Compound 19ak]
- MIC [1]: 0.5 µg/mL (≈ 2.25 µM)
- MIC [2]: 0.5 µg/mL (≈ 2.25 µM)
- MIC80 [3]: 0.5 µg/mL (≈ 2.25 µM)
- MIC80 [4]: 1 µg/mL (≈ 4.5 µM)
- MIC80 [5]: 0.25 µg/mL (≈ 1.12 µM)
- MIC80 [6]: 0.25 µg/mL (≈ 1.12 µM)
- MIC80 [7]: 0.25 µg/mL (≈ 1.12 µM)
- IC50 at 48 h ([8]; 16HBE cells (bronchial epithelial cell line), 16HBE cells): 6.97 µg/mL (≈ 31.4 µM)
- IC50 at 48 h ([8]; HK2 cells (renal epithelial cell line), HK2 cells): 26.8 µg/mL (≈ 121 µM)
- Selectivity index 16HBE [9]: 55.78
- Selectivity index HK2 [10]: 214.32
- Effect of antioxidants NAC and Tu on antifungal activity (cell growth monitoring) [11]: greatly enhanced the antifungal activity
